The values that follow are results of earlier work, collected in patent US20190307696A1, “TABLETS COMPRISING MIRABEGRON AND SOLIFENACIN” (SYNTHON B.V., priority 2016, published 2019).

SMILES strings stand for the structures.

The conditions of data set [1]: neutral to acidic pH.
For data set [2] the following is noted: presence of food in the GI tract.

For the molecule `Nc1nc(CC(=O)Nc2ccc(CCNC[C@H](O)c3ccccc3)cc2)cs1` [Mirabegron], the “permeability (BCS)” value is on record as “low permeability” and the “solubility (BCS)” value is on record as “high solubility”. In addition, in data set [1], the solubility in water entry is on record as “soluble in water between neutral to acidic pH”. Besides, the bioavailability entry in data set [2] was “affected by the presence of food in the GI tract”.
